# Where “and” joins values, the source holds several entries; their conditions need not be identical. Equal values may be shown once.
# Key:
# mice = assay: 21-day chronic administration: body weight, organ weight, serum biochemistry
# C57BL/6J mice after CSDS = assay: CSDS model, social interaction test; format: in vivo
# Method: The 10‐day CSDS paradigm was conducted as previously described.^[ [24] ^] CD‐1 aggressive mice were singly housed in defeat cages on one side of a perforated plexiglass partition 24 h before the defeat session. Experimental C57BL/6J mice were placed daily on the resident cage side of a novel CD‐1 aggressor that rapidly initiated a physical attack on the intruder. After 10‐min of social defeat, the intruder mice were housed on the opposite side of the partition within a shared home cage, experiencing further sensory contact for the subsequent 24 h. In contrast, control mice were maintained in their home cages and allowed to explore the empty defeat cages for 10 min each day.
# C57BL/6J mice, comprising both control and experimental groups, were placed individually into the social open field with a plexiglass enclosure positioned along the side wall. Movement parameters, including the time spent in the interaction zone, corner zones, and locomotion, were monitored and analyzed over the two test sessions using the AnyMaze Tracking System. In the first session, the mice freely explored the arena for 2.5 min. Then, a new aggressive CD‐1 mouse was introduced into the plexiglass enclosure, and the experimental mice returned to the arena for the second 2.5‐min session. The social interaction ratio was determined as the ratio between the time the experimental mice spent in the interaction zone when the target CD‐1 was present and the time spent in the zone when it was absent.
# Kir4.2 = molecular target: T1, Kir4.2 (Homo sapiens, UniProt Q99712); assay: Whole-cell patch clamp, Kir4.2; format: cell-based
# T1 construct: host or cells: CHO-K1
# T1 sequence (Q99712 1-375): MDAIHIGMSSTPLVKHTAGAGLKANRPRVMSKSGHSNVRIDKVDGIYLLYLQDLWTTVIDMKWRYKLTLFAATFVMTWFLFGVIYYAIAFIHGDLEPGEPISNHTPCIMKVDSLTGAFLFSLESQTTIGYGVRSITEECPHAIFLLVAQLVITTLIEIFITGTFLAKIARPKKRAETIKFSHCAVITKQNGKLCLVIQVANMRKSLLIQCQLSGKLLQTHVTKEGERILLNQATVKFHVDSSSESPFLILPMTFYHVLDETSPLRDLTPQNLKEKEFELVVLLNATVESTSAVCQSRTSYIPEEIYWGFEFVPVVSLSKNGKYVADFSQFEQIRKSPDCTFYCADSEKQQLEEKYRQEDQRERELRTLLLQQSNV
# Method: Plasmids encoding WT human potassium channels Kir1.1, Kir2.1, Kir2.2, Kir4.1, and Kir4.2 were obtained from the Beijing Genomics Institute. All point mutations were constructed using the QuickChange II Site‐Directed Mutagenesis Kit (Stratagene) and subsequently verified by sequencing.
# CHO‐K1 cells were maintained in DMEM/F12 growth medium containing 10% fetal bovine serum. Plasmids encoding the target genes (3600 ng) and enhanced green fluorescent protein (400 ng) were cotransfected into cells using Lipofectamine 2000 (Invitrogen) in accordance with the manufacturer's instructions. Cells were seeded onto poly‐d‐lysine (PDL)‐coated glass coverslips 1 h prior to electrophysiological recordings. All cells were cultured under standard conditions of 5% CO2 at 37 °C.
# (§1) Whole‐cell patch‐clamp recordings were obtained either in transiently transfected CHO‐K1 cells or in primary cultured astrocytes at room temperature using standard patch‐clamp techniques with an Axopatch‐700B amplifier (Axon Instruments). The signals were filtered at 2 kHz and sampled at 20 kHz using the Digidata 1440A interface (Axon Instruments). The resistance of borosilicate glass pipettes was typically 2–4 MΩ when filled with the internal solution. Drug application was facilitated using a BPS perfusion system (ALA Scientific Instruments). Macroscopic currents generated by expressed potassium channels were recorded under the voltage‐clamp conditions with an internal pipette solution composed of (in mM): 140 KCl, 5 NaCl, 1 CaCl2, 1 MgCl2, 10 HEPES, and 10 EGTA, pH 7.2 adjusted with KOH. The external solution contained (in mM): 140 NaCl, 5 KCl, 2 CaCl2, 1 MgCl2, 10 glucose, and 10 HEPES, pH 7.4 adjusted with NaOH. Currents were elicited with a hyperpolarized voltage at −120 mV from the holding potential of −80 mV, followed by a ramp voltage depolarizing to +50 mV. Astrocytic resting membrane potentials were recorded under current‐clamp conditions (I = 0 pA) using standard internal and external solutions, determined immediately after achieving whole‐cell mode.
# [1] = system: primary cortical astrocytes (native Kir4.1 channels); assay: Patch clamp of primary cultured WT astrocytes (native Kir4.1); format: cell-based, mouse
# Method: Astrocytes were isolated and cultured as previously described.^[ [16] ^] Briefly, the cortices from P1‐P4 mouse pups were dissected and incubated for 25 min in Hank's Balanced Salt Solution (22.5 ml) with 2.5% trypsin (2.5 ml) at 37 °C. Cells were dissociated in cultured medium (DMEM/F12 supplemented with 10% fetal bovine serum and 1% penicillin and streptomycin) and filtered with a 70‐µm cell strainer. Cell suspensions were cultured in PDL‐pretreated 75‐cm^2 flasks for the initial seven days, with half of the medium replaced every 2 days. Subsequently, the cultures were shaken at 220 rpm for 6 h at 37 °C to remove microglia and oligodendrocytes from the astrocyte layers. The astrocytes were harvested, reseeded in two new flasks, and cultured in an incubator for 14 days. For Kir4.1 deletion in cell cultures, 4‐OH tamoxifen (final concentration: 1 µM, Felixbio) was added into Kir4.1^flox/flox: Aldh1l1‐Cre/ERT2 cortical cultures at DIV 2 and DIV 4, respectively, and completely removed at DIV7 when astrocytes were reseeded in fresh culture medium.
# as §1
# [2] = 10 mg/kg, 21-day chronic administration, individual animals
# [3] = serum, 10 mg/kg, 21-day chronic administration, individual animals
structure (smiles),measurement,setting,value
"c1ccc2c(c1)oc1ccc(Nc3ccnc(NCCCN4CCOCC4)n3)cc12 [JX3212, N^4-(dibenzo[b,d]furan-2-yl)-N^2-(3-morpholinopropyl)pyrimidine-2,4-diamine]",body weight during 21-day chronic administration (in words),"mice; 10 mg kg−1 per day, vs vehicle",no evident effect on body weight
same,Kidney/Body Weight Ratio (%),mice; [2],1.122% and 1.187% and 1.1008% and 0.9864% and 1.07% (2×) and 1.145% and 1.0748% and 1.06% and 1.171%
same,Liver/Body Weight Ratio (%),mice; [2],5.072% and 4.477% and 4.872% and 4.814% and 4.623% and 5.084% and 4.1308% and 4.637% and 4.391% and 4.945%
same,Body weight,"mice; 10 mg/kg, day 7, individual animals",24.2 (3×) and 24 and 25.6 and 25.4 and 23.8
same,Body weight,"mice; 10 mg/kg, day 8, individual animals",24 and 25.9 and 24.2 (2×) and 24.4 and 25 and 26
same,Body weight,"mice; 10 mg/kg, day 9, individual animals",25 and 24 and 26.3 and 25.6 (2×) and 24.7 and 24.1
same,Body weight,"mice; 10 mg/kg, day 10, individual animals",26.3 and 25.4 (2×) and 24.1 and 25 and 25.5
same,liver-to-body and kidney-to-body weight ratio (in words),mice; 21-day administration,no appreciable differences
same,serum aspartate aminotransferase and urea levels (in words),mice; 21-day administration,comparable
same,serum creatinine level (in words),mice; 21-day administration,marked decreases in creatinine levels
same,ALT,mice; [3],36 and 35 and 41 and 32 and 37 and 33 and 31 and 29
same,AST,mice; [3],167 and 207 and 243 and 139 and 147 and 172 and 200 and 131 and 133 and 155
same,Cr,mice; [3],19 and 18 and 20 and 21 and 22 and 23
same,Urea,mice; [3],5.59 and 3.68 and 6 and 5.19 and 5.88 and 6.46 and 5.16 and 5.73 and 5.29 and 5.71
same,"SIT--Time in interaction zone (s), single mice","C57BL/6J mice after CSDS; 10 mg/kg, session not given",83.5 s and 59.3 s and 49.8 s and 72.2 s and 60.4 s and 74.9 s and 82.2 s and 43.8 s
same,CSDS: time spent in corners in SIT (in words),C57BL/6J mice after CSDS; single i.p. injection 10 mg kg−1,significant decrease in the time spent in corners
same,Kir4.2 blockade,"Kir4.2; 3 µM, mean ± SEM",86.57 ± 10.51%
same,"Kir isoforms: Kir4.2 inhibition, single recordings",Kir4.2; JX3212 3 µM (Fig 2A),93.8526 and 74.5275
same,inhibition at 3 µM,"Kir4.2; JX3212 3 µM (Fig 2A), read-out: Kir isoforms: Kir4.2 inhibition, single recordings",91.3%
same,astrocytic resting membrane potential (in words),"[1]; JX3212 3 µM, BaCl2 100 µM",marked depolarization
same,astrocytic macroscopic slope conductance (in words),"[1]; WT astrocytes, 3 µM",partially impaired the macroscopic slope conductance
same,astrocytic potassium currents (in words),"[1]; WT astrocytes, 3 µM",notably decreased potassium currents

# — PMC12903969, “Discovery of a Novel and Potent Kir4.1 Inhibitor as a Safe and Rapid‐Onset Antidepressant Agent in Mice” (Advanced Science, 2025)
